In patent US20170022201A1, “MACROCYLIC PYRIDINE DERIVATIVES” (Janssen Pharmaceutica NV, priority 2014, published 2017):

Key:
[1] = biological target: PIK3C3 lipid kinase (Homo sapiens, UniProt Q8NEB9); experiment: Biochemical Vps34 lipid kinase assay (ADP-Glo); conditions: 20 μM ATP; for remaining activity at 1 µM: 1 h, read-out: VPS34_1microM_%ofcntrl; for remaining activity at 1 µM / VPS34_1microM_%ofcntrl: single dose 1 μM, residual activity compared to control (DMSO); for IC50: serial dilution 10 μM to 0.3 nM, pIC50 = -log IC50 (M)
Description: A non-radiometric kinase assay (ADP-Glo™ Assay, Promega, Madison, Wi, USA) was used for measuring the kinase activity of the PIK3C3 lipid kinase. All kinase assays were performed in 96-well half-area microtiter plates in a 25 μl reaction volume. The reaction cocktail was pipetted in 3 steps in the following order: • 10 μl of ATP solution (in assay buffer, see below) • 5 μl of test sample in 5% DMSO 10 μl of enzyme/substrate mixture
All lipid kinase assays contained 50 mM HEPES (4-(2-hydroxyethyl)-1-piperazineethanesulfonic acid)—NaOH, pH 7.5, 1 mM EGTA ((ethylene glycol tetraacetic acid), 100 mM NaCl, 0.03% CHAPS (3-[(3-Cholamidopropyl) dimethylammonio]-1-propanesulfonate), 2 mM DTT (Dithiothreitol), 20 μM ATP (corresponding to the apparent ATP-Km), kinase (7.6 nM) and substrate (50 μM). The assay for PIK3C3 additionally contained 3 mM MnCl2.
The reaction cocktails were incubated at 30° C. for 60 minutes. The reaction was stopped with 25 μl ADP-Glo™ reagent per well. Plates were incubated for 40 minutes at room temperature, followed by addition of 50 μl kinase detection reagent per well and incubation for 60 minutes at room temperature. Signal was determined with a microplate luminescence reader (Victor, Perkin Elmer). The assay was either performed using a single dose of compound (1 μM final concentration in the assay reaction) with resulting data expressed as residual activity compared to control (DMSO), or using a serial (half-log) dilution of compounds starting at 10 μM and down to 0.3 nM (final concentrations in the assay) with data expressed as the pIC50.

[2] = biological target: T1, EF2K (Homo sapiens, UniProt O00418); experiment: Biochemical EF2K lysate-based kinase assay (AlphaLISA p-eEF2 Thr56); conditions: LN-229 cell lysates, 10 mM ATP, pH 6.6; pIC50 = -log IC50 (M); read-out: eEF2K_C_alphalisa pIC50 (converted)
T1 construct: host or cells: LN-229 glioblastoma cell lysate
T1 sequence (O00418 1-725): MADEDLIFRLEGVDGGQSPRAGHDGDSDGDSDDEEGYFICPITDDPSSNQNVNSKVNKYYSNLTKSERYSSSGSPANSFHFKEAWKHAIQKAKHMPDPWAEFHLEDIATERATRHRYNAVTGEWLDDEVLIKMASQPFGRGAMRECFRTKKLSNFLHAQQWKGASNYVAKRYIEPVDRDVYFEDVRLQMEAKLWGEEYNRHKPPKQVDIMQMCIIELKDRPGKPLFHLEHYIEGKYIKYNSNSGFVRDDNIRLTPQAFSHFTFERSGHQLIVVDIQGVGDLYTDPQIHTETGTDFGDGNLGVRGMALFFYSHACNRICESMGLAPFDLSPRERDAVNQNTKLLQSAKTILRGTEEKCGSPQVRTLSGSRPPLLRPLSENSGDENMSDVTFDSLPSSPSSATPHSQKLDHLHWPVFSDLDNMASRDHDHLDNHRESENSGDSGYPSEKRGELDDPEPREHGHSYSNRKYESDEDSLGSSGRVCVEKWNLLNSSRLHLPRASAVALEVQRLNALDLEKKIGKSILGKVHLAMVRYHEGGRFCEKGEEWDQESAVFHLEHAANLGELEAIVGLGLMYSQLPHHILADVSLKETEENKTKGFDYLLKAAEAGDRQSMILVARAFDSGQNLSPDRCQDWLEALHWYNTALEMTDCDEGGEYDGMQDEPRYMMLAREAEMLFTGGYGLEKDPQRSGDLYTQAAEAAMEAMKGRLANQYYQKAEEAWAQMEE
How it was run: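 LN-229 glioblastoma lysate supplied both EF2K and eEF2 substrate; compound incubated with lysate 15 minutes at room temperature at pH 6.6 with 10 mM Mg2+ and 10 mM ATP, then stopped with excess EDTA. Thr56-phosphorylated eEF2 detected by sandwich AlphaLISA, final read after overnight standing.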

[3] = biological target: T2, eEF2K (Homo sapiens, UniProt O00418); experiment: EF2K cell-based assay (P-EF2 AlphaLISA, 2-deoxyglucose stimulated MCF10A cells); conditions: 2.5 mM 2-deoxyglucose 4 h, phosphorylation of EF2 at Thr 56, pIC50 = -log IC50 (M); for IC50: read-out: eEF2K_C_PThr56 pIC50 (converted)
T2 construct: in the immortalized epithelial breast cell lines, MCF10A; host or cells: MCF10A immortalized breast epithelial cells
T2 sequence (O00418 1-725): T1 sequence (O00418 1-725)
How it was run: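 MCF10A cells pretreated with compound for 1 h, then stimulated with 2.5 mM 2-deoxyglucose for 4 h to deplete ATP and activate AMPK. Phospho-EF2 in lysates measured by AlphaLISA.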

PIK3C3 lipid kinase, sequence (Q8NEB9 whole entry): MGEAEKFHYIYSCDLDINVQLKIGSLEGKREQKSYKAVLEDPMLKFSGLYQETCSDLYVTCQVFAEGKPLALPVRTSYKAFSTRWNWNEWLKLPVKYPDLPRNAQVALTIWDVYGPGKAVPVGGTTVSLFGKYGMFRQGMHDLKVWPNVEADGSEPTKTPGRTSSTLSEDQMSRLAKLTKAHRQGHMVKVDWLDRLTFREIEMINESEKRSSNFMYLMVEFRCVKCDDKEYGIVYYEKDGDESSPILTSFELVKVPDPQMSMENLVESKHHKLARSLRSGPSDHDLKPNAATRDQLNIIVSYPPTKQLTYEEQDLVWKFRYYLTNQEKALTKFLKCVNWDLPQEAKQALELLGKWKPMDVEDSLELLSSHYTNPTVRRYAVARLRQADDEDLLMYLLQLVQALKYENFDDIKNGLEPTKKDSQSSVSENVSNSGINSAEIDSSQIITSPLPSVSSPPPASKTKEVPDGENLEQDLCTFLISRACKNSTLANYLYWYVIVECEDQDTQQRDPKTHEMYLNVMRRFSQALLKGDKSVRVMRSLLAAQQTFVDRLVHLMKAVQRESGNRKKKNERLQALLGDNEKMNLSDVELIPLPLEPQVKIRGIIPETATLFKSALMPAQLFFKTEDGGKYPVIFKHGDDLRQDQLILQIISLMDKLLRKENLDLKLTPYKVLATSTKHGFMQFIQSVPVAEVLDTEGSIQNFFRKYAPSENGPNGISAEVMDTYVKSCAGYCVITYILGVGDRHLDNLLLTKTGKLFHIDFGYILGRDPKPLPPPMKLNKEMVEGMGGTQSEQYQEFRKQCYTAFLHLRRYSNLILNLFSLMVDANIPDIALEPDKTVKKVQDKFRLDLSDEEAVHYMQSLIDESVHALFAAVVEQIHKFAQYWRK

| SMILES | remaining activity at 1 µM [1] | melting point | IC50 [2] | IC50 [3] | IC50 [1] | VPS34_1microM_%ofcntrl [1] | eEF2K_C_PThr56 pIC50 [3] |
| --- | --- | --- | --- | --- | --- | --- | --- |
| O=C1CN2CCN(CC2)Cc2cccc(c2)Nc2cc(ccn2)-c2ccc(nc2)NCCN1 [Compound 70] | 72.6% | 252 °C | 5.62e-06 M | > 3.02e-05 M | – | – | – |
| CC1c2cccc(c2)Nc2cc(ccn2)-c2cnc(nc2)N2CC(O)CC2CCNC(=O)C2(CC2)N2CCN1CC2 (single isomer, unassigned) [Compound 65] | – | – | 5.62e-09 M | 3.8e-07 M | 1.95e-07 M | – | – |
| CC1CN2Cc3cccc(c3)Nc3cc(ccn3)-c3cnc(nc3)NCCCNC(=O)CN1CC2C (centres unmarked) [Compound 35] | 20.9% | – | 6.46e-08 M | 2.45e-07 M | 2.95e-07 M | – | – |
| O=C1CN2C3CCC2CN(Cc2cccc(c2)Nc2cc(ccn2)-c2cnc(nc2)NCCCN1)C3 [Compound 42] | – | – | 9.77e-08 M | ~2.29e-06 M | 7.08e-07 M | – | – |
| NC(=O)C1CCNC(=O)CN2CCN(CC2)Cc2cccc(c2)Nc2cc(ccn2)-c2cnc(nc2)N1 (centres unmarked) [Compound 123] | 73.4% | – | 4.47e-07 M | 5.37e-06 M | – | – | – |
| O=C1CN2CC3CCC(C2)N3Cc2cccc(c2)Nc2cc(ccn2)-c2cnc(nc2)NCCCN1 [Compound 41] | 23.3% | – | 1.05e-07 M | 1.7e-06 M | 7.41e-07 M | – | – |
| CC1CN2CCN1Cc1cccc(c1)Nc1cc(ccn1)-c1cnc(nc1)NCCCNC(=O)C2 (centres unmarked) [Compound 36] | – | – | 1.62e-08 M | 9.77e-07 M | 7.24e-07 M | – | – |
| O=C1CN2CCN(CC2)Cc2cccc(c2)Nc2cc(ccn2)-c2ccc(nc2)N2CCCC2CCN1 (single isomer, unassigned) [Compound 142] | 40% | – | 3.55e-08 M | 1.58e-06 M | – | – | – |
| CNC(=O)C1CCNC(=O)CN2CCN(CC2)Cc2cccc(c2)Nc2cc(ccn2)-c2cnc(nc2)N1 (centres unmarked) [Compound 122] | 39.5% | – | 1.91e-05 M | 1.41e-05 M | – | – | – |
| O=C1NCCC2CC(O)CN2c2ncc(cn2)-c2ccnc(c2)Nc2cccc(c2)CN2CCN(CC2)C12CC2 (centres unmarked) [Compound 57] | – | – | 1.02e-08 M | 3.09e-07 M | 5.01e-06 M | – | – |
| COC(=O)C1CCNC(=O)CN2CCN(CC2)Cc2cccc(c2)Nc2cc(ccn2)-c2cnc(nc2)N1 (centres unmarked) [Compound 116] | 33.5% | – | 2.69e-06 M | 1.91e-05 M | – | – | – |
| O=C1CN2CCC(CC2)Cc2cccc(c2)Nc2cc(ccn2)-c2ccc(nc2)NCCCN1 [Compound 140] | 46.4% | – | 3.8e-06 M | 8.51e-06 M | – | – | – |
| O=C1CN2CCN(CC2)Cc2cccc(c2)Nc2cc(ccn2)-c2cnc(nc2)NC(C(=O)O)CCN1 (centres unmarked) [Compound 120] | – | – | 6.31e-07 M | > 3.02e-05 M | 2.95e-07 M | 23.74% | – |
| O=C1CN2CCN(Cc3cccc(c3)Nc3cc(ccn3)-c3cnc(nc3)NCCCN1)C1(CC1)C2 [Compound 27] | – | – | 1.07e-08 M | ~1.23e-06 M | 2.57e-08 M | – | – |
| CC1(C)CN2CCN1CC(=O)NCCCNc1ncc(cn1)-c1ccnc(c1)Nc1cccc(c1)C2 [Compound 18] | 8.79% | – | 8.71e-08 M | 1.05e-06 M | 1.74e-07 M | – | – |
| O=C1CN2CCN(CC2)Cc2cccc(c2)Nc2cc(ccn2)-c2ccc(nc2)CN(CC2CC2)CCN1 [Compound 146] | 54.6% | – | 3.89e-08 M | 6.61e-07 M | – | – | – |
| COC(=O)C1CCNC(=O)CN2CCN(CC2)Cc2cccc(c2)Nc2cc(ccn2)-c2cnc(nc2)N1 (single isomer, unassigned) [Compound 118] | 70.6% | – | 3.09e-07 M | 1.55e-05 M | – | – | – |
| [N-]=[N+]=N[C@H]1C[C@H]2CCNC(=O)C3(CC3)N3CCN(CC3)Cc3cccc(c3)Nc3cc(ccn3)-c3cnc(nc3)N2C1 [Compound 83] | 42.3% | – | 8.71e-09 M | 6.61e-07 M | – | – | – |

Second part, the compound after the results:

| remaining activity at 1 µM [1] | melting point | IC50 [2] | IC50 [3] | IC50 [1] | VPS34_1microM_%ofcntrl [1] | eEF2K_C_PThr56 pIC50 [3] | SMILES |
| --- | --- | --- | --- | --- | --- | --- | --- |
| 50.4% | 240 °C | > 3.02e-05 M | > 3.02e-05 M | – | – | – | COCCCN1CCCN(C)C(=O)CN2CCN(CC2)Cc2cccc(c2)Nc2cc(ccn2)-c2cnc1nc2 [Compound 14] |
| 67% | 240 °C | > 3.02e-05 M | > 3.02e-05 M | – | – | – | COCCN1CCN(C)C(=O)CN2CCN(CC2)Cc2cccc(c2)Nc2cc(ccn2)-c2cnc1nc2 [Compound 15] |
| – | – | 2.34e-06 M | > 1e-05 M | 6.03e-07 M | – | – | O=C1CN2CC3CCC2CN3Cc2cccc(c2)Nc2cc(ccn2)-c2cnc(nc2)NCCCN1 (single isomer, unassigned) [Compound 25] |
| 74.5% | – | 2.88e-07 M | 4.17e-07 M | – | – | – | O=C1CN2CCN(CC2)Cc2cccc(c2)Nc2cc(ccn2)-c2cnc(nc2)CN(CC2CC2)CCN1 [Compound 128] |
| – | – | 6.17e-08 M | 9.12e-07 M | 1.12e-06 M | – | – | CC1c2cccc(c2)Nc2cc(ccn2)-c2cnc(nc2)N2CC(O)CC2CCNC(=O)C2(CC2)N2CCN1CC2 (single isomer, unassigned) [Compound 66] |
| – | – | 3.72e-08 M | 2.24e-06 M | – | 43.17% | – | N#CC1CC2CCNC(=O)CN3CCN(CC3)Cc3cccc(c3)Nc3cc(ccn3)-c3cnc(nc3)N2C1 (centres unmarked) [Compound 78] |
| 44.1% | – | 7.94e-08 M | 3.16e-06 M | – | – | – | CC1CN2CCN1Cc1cccc(c1)Nc1cc(ccn1)-c1cnc(nc1)N1CCCC1CCNC(=O)C2 (centres unmarked) [Compound 48] |
| 15.3% | – | 1.55e-07 M | 5.75e-06 M | 2.29e-07 M | – | – | O=C1NCCCNc2ncc(cn2)-c2ccnc(c2)Nc2cccc(c2)CN2CCN(CC2)C1CO (single isomer, unassigned) [Compound 3] |
| 46.1% | – | > 3.02e-05 M | > 3.02e-05 M | – | – | – | CN1CCCN(CCCO)c2ncc(cn2)-c2ccnc(c2)Nc2cccc(c2)CN2CCN(CC2)CC1=O [Compound 16] |
| – | – | 3.47e-08 M | 8.51e-07 M | 4.17e-07 M | – | – | CC1CN2CCN1Cc1cccc(c1)Nc1cc(ccn1)-c1cnc(nc1)N1CC(O)CC1CCNC(=O)C2 (centres unmarked) [Compound 59] |
| 52.7% | – | 2.82e-07 M | > 3.02e-05 M | – | – | – | O=C1CN2CCN(CC2)Cc2cccc(c2)Nc2cc(ccn2)-c2cnc(nc2)NCCS(=O)(=O)N1 [Compound 126] |
| – | – | 4.07e-09 M | 8.51e-08 M | 1.78e-07 M | – | – | O=C1NCCC2CC(O)CN2c2ncc(cn2)-c2ccnc(c2)Nc2cccc(c2F)CN2CCN(CC2)C12CC2 (centres unmarked) [Compound 53] |
| – | – | 2.75e-07 M | – | – | 58.90% | <4.52 | O=C1CN2CCN(CC2)Cc2cccc(c2)Nc2cc(ccn2)-c2cnc(nc2)NC(C(=O)O)CCN1 (centres unmarked) [Compound 119] |
| – | – | ~2.19e-08 M | ~7.94e-07 M | 2.19e-07 M | – | – | O=C1CN2CCN(CC2)Cc2cccc(c2)Nc2cc(ccn2)-c2cnc(nc2)NCCCN1 [Compound 33] |
